Experimental data: patent US9434733B2, “PDE9 inhibitors with imidazo triazinone backbone” (H. Lundbeck A/S, priority 2012, dated 2016)
pIC50: −log10 of the molar value.

Target: PDE9 (Homo sapiens (Human), UniProt O76083)
Assay: PDE9 inhibition assay
Type: biochemical
Conditions: 10 nM 3H-cAMP, 1 hour incubation, yttrium silicate SPA beads; read-out: PDE9_IC50
Procedure: Reactions are initiated by addition of the cyclic nucleotide substrate, and reactions are allowed to proceed for one hr at room temperature before being terminated through mixing with 15 uL 8 mg/mL yttrium silicate SPA beads (Amersham).
Following a 1 hour incubation the reactions were terminated by addition of 15 uL 8 mg/mL yttrium silicate SPA beads (Amersham). […] IC50 values were calculated by non linear regression using XLfit (IDBS).

Sequence of PDE9 (O76083 whole entry): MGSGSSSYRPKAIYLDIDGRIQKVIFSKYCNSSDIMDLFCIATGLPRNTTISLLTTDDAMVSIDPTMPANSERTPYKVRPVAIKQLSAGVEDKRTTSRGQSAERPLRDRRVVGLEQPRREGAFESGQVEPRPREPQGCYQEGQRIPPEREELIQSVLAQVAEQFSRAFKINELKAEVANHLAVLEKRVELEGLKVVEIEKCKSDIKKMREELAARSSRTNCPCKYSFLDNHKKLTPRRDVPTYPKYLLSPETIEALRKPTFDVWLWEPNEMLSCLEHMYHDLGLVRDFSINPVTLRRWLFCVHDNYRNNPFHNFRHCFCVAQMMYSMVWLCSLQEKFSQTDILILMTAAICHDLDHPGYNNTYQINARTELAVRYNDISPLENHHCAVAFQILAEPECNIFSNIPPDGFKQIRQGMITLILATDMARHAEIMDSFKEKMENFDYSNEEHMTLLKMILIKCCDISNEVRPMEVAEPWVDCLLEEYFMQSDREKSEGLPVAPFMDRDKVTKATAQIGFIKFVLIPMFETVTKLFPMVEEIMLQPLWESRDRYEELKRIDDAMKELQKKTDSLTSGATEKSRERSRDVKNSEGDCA

- pIC50: 6.46
Compound: O=c1[nH]c(CN2CC(Oc3cccnc3)C2)nn2c(C3CCOCC3)ncc12 [2-[[3-(3-pyridyloxy)azetidin-1-yl]methyl]-7-tetrahydropyran-4-yl-3H-imidazo[5,1-f][1,2,4]triazin-4-one]
